Results: PMC5592639 (ACS combinatorial science, 2016)

Tests used:
Type in all cases: cell-based
[1] = tested on: H460 (human non-small cell lung carcinoma cells); test: Cytotoxicity against H460; settings: NCI-H460
[2] = tested on: H460TaxR (paclitaxel-resistant human non-small cell lung carcinoma cells); test: Cytotoxicity against H460TaxR; settings: H460/TaxR
[3] = tested on: normal human fibroblasts NHFB; test: Cytotoxicity against normal human fibroblasts; settings: Fibroblast

CC(=O)O[C@H]1C(=O)[C@@]2(C)[C@H]([C@H](OC(=O)c3ccccc3)[C@]3(O)C[C@H](OC(=O)[C@H](O)[C@@H](NC(=O)c4ccccc4)c4ccccc4)C(C)=C1C3(C)C)[C@]1(OC(C)=O)CO[C@@H]1C[C@@H]2O [PTX, paclitaxel]
EC50 [1]: 6 ± 2 nM
EC50 [2]: 800 ± 400 nM
EC50 [3]: 50 ± 30 nM
